Drawing on ChEMBL document CHEMBL1201862, “PubChem BioAssay data set” (2004), this text covers AC50, EC50 and IC50 for eight compounds.

By AC50 is commonly meant the concentration at which the activity in the assay is half-maximal. A word on the EC50: it is the midpoint of the concentration-response curve. For orientation: IC50 means the concentration needed to halve the response being measured.

The source made the active and inactive calls.

A short description of assay [1]: HepG2 cell cytotoxicity, dose response, cytotoxicity control, plate reader, cherry-pick, antagonist series (AID 743416). In kind it is functional, cell-based.
A short description of assay [2]: LGR2 antagonists, dose response, cell-based, HEK293, CRE-luciferase reporter, cherry pick, set 2 (AID 743343).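 Note: transfected cells were stimulated with diluted bursicon conditioned medium after compound addition.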 In kind it is functional. For orientation: Reporter assays use an easily measured gene product as a stand-in for the process of interest.
Assay [3] can be described thus: MC4R antagonists, dose response, counter-screen for LGR2 antagonist project, cell-based, plate reader, cherry pick (AID 743444).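 Note: transfected HEK 293 cells stimulated with alpha-MSH peptide; potency of inhibitors of the alpha-MSH evoked signal.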 The class given is functional. In general terms: Counterscreens check selectivity or assay interference.
In assay [4] the target is T1, Oxysterols receptor LXR-beta (Homo sapiens, UniProt P55055).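 Note: agonist activity at LXR measured by a cell-based luminescence readout across a dose range, run as a counterscreen for daf-12 agonists; HEK293 cells with Gal4-LXR fusion and GAL4-driven luciferase reporter; potency for activation of Gal4-LXR reporter so compounds are agonists.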
T1 sequence (P55055 whole entry): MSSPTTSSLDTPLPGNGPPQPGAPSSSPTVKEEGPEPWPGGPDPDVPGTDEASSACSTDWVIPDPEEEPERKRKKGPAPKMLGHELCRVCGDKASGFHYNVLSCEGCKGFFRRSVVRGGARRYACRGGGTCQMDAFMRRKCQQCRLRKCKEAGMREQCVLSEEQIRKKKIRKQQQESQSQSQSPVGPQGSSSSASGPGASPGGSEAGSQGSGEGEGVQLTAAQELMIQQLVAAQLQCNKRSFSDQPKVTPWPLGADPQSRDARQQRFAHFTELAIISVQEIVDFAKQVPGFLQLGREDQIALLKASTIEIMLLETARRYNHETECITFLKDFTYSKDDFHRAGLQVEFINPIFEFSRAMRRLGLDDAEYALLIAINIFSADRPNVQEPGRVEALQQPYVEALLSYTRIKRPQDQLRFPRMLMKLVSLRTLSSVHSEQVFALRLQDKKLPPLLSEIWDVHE
In kind it is functional, cell-based.

The target of another assay is Nonstructural protein 1 (Influenza A virus, UniProt Q194T2). The class given is functional, Influenza A virus (A/California/07/2009(H1N1)).
Chain of Nonstructural protein 1 (Q194T2 whole entry): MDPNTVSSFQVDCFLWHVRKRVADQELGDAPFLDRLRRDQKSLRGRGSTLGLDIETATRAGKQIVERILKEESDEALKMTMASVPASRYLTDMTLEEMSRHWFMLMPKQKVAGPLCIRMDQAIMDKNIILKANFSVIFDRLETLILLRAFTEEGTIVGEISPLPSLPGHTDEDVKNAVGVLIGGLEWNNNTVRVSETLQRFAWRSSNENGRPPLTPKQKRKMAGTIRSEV
The nature of assay [5]: human group III sPLA2 inhibitors, dose response, biochemical, QFRET, IC50 (AID 743457).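 Note: green fluorescence rise as the enzyme cleaves BODIPY PC-A2 in liposomes; potency for inhibition of the enzyme.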
Assay [6] is described as follows: ADAM10 inhibitors, peptide cleavage, dose response, biochemical, QFRET (AID 743254).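 Note: ADAM10 enzyme with the DM2 quenched FRET peptide as substrate; EDANS fluorescence gain as the protease cuts the substrate; inhibitor potency against ADAM10 proteolytic activity.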
Assay [7] deals with Disintegrin and metalloproteinase domain-containing protein 17 (Homo sapiens, UniProt P78536). Nature of the assay: ADAM17 protease inhibitors, dose response, counter-screen for ADAM10 exosite inhibitor project, biochemical, quenched FRET substrate (AID 743253).
Chain of Disintegrin and metalloproteinase domain-containing protein 17 (P78536 whole entry, the tested form may be a part): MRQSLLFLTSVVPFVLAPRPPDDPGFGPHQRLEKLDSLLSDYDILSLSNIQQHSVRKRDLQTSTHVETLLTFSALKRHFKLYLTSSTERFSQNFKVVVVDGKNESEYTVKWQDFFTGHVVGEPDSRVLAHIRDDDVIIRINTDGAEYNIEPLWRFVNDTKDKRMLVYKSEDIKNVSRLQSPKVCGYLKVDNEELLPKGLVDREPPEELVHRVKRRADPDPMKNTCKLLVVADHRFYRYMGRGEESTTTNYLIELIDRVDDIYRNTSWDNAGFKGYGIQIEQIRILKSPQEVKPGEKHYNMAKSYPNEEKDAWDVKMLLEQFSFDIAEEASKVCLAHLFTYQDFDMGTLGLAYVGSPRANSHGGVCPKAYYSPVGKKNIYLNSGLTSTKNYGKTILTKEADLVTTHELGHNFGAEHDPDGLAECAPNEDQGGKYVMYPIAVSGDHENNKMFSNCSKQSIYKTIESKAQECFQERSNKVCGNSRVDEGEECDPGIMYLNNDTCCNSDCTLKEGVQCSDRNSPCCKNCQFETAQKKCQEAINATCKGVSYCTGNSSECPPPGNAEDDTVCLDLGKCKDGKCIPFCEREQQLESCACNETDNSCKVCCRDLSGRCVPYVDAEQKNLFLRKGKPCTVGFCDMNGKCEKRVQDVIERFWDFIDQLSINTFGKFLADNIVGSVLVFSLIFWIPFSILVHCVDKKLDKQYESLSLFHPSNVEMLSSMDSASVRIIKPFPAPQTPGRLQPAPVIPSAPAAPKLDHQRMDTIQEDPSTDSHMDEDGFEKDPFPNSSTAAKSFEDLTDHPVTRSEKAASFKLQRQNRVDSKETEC
Assay [8] concerns the target Metabotropic glutamate receptor 3 (Rattus norvegicus, UniProt P31422). Briefly: mGlu3 NAM potency via calcium readout, dose response, mGlu3 NAM project, TREx293 cells, Galpha15, calcium flux (AID 651840). The class given is functional. In general terms: Calcium flux is commonly read through the fluorescence of an indicator in the cells.
The nature of assay [9]: cells. The class given is functional, cell-based.
The nature of assay [10]: cells. The class given is functional, cell-based. This is another data set of the same source.
Assay [11] can be described thus: HepG2 cell cytotoxicity, dose response, cytotoxicity control, ATP luminescence, cherry-pick, activator set 2 (AID 1053143). The class given is functional, cell-based.

Chain of Metabotropic glutamate receptor 3 (P31422 whole entry): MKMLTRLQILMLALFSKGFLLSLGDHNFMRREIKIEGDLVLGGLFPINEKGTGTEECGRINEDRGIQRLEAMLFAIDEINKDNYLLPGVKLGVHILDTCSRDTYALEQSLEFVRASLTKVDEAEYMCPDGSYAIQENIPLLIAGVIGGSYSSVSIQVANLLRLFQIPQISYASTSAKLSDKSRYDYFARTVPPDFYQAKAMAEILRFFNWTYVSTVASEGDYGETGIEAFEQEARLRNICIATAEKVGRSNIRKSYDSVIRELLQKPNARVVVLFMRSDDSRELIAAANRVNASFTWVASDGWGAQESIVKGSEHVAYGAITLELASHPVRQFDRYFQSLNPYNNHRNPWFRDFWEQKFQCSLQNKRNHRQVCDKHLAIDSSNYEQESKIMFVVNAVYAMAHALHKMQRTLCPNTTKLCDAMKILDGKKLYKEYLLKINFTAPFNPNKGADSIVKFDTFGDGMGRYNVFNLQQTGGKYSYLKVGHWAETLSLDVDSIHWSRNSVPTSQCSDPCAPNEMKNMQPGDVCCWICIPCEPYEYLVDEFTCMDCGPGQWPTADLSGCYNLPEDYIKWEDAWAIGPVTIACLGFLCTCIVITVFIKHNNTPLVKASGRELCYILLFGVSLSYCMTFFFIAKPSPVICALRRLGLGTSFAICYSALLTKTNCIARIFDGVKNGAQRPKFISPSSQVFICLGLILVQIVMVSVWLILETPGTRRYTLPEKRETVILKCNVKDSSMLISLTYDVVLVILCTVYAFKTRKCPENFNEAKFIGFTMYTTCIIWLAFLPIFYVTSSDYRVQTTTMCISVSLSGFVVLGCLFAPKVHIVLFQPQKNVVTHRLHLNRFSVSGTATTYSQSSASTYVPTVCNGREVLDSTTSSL

Take `Cc1ccc(-c2nc(-c3ccncc3)no2)cc1C`: the AC50 in [1] was > 52 µM (inactive); in [2] it was 17.8 µM (active); in assay [3], 25.8 µM (active). For the same compound, the EC50 in [4] was > 67.5 µM (inactive).
In the case of `CCN1C(=O)/C(=C2/C=Cc3ccccc3N2CC)SC1=S`, the IC50 on Nonstructural protein 1 is 9.45 µM (active); in assay [5], 94.1 µM (inactive).
Take `NC(=O)[C@H]1CC2(CC(c3cccc(NC(=O)CC(c4ccccc4)c4ccccc4)c3)=NO2)CN1C(=O)CC(c1ccccc1)c1ccccc1` (stereo not given in full): the IC50 in [6] and in assay [7] was > 69.5 µM (inactive) in each case.
As for `COc1ccc(C#Cc2ccc(C(=O)N3CCCC(C)(C)C3)cc2)cc1`, the half-inhibitory concentration (IC50) in assay [8] turned out to be 2.01 µM.
With `Cc1ccc(N/N=C(\C#N)C(=N)N2CCCCCC2)cc1`, the EC50 in assay [4] is > 67.5 µM (inactive).
On to `CC(O)(c1ccc(F)c(F)c1)c1nc(-c2cccc(C(F)(F)F)c2)cs1` (stereo not given), for which the values for the IC50 in assay [6] and in [7] were 7.59 µM (active) and > 69.5 µM (inactive), respectively.
Regarding `Oc1ccc(/C=N/CCc2ccccc2)cc1`, the IC50 in the assay “cells [9]” was > 29.9 µM (inactive). Further, in “cells [10]”, the EC50 is > 29.9 µM (inactive).
Regarding `COC(=O)c1c(NC(C)=O)sc(C(=O)Nc2ccccc2F)c1C`, in assay [11], the AC50 was 26 µM (active).
